Source: patent US10064858B2, “Methods and compositions for treating bacterial infections with iron chelators” (THE UNITED STATES OF AMERICA, AS REPRESENTED BY THE …, priority 2011, dated 2018)
Like-named read-outs stand apart in the source and are kept apart here.

Experiments:
Assay type in all cases: cell-based
S. aureus = assay: MIC, CLSI microdilution (Tables 1 and 6); settings: Staphylococcus aureus, Table 1, read-out: MIC of Iron Chelators
Protocol: (§1) The minimal inhibitory concentration (MIC) of non-toxic iron chelators was determined against standard strains of MDR bacteria and clinical isolates according to the guidelines of the Clinical and Laboratory Standards Institute (CLSI).
(§2) Individual MICs were determined following the microdilution method recommended by CLSI in cationic-adjusted Mueller-Hinton Broth (CAMHB), or M9 media. […] Tests were performed in triplicate. MIC of iron chelators were determined for noscomial ESKAPE pathogens.
(§3) MIC were determined in CAMHB media as described above in Example 8.

Acinetobacter baumannii [1] = assay: MIC, CLSI microdilution (Tables 1 and 6)
Protocol: as §1, §2, §3

K. pneumonia [2] = assay: MIC, CLSI microdilution (Tables 1 and 6); settings: Klebsiella pneumoniae, Table 1, read-out: MIC of Iron Chelators
Protocol: as §1, §2, §3

P. aeruginosa [3] = assay: MIC, CLSI microdilution (Tables 1 and 6); settings: Pseudomonas aeruginosa, Table 1, read-out: MIC of Iron Chelators
Protocol: as §1, §2, §3

E. coli [4] = assay: MIC, CLSI microdilution (Tables 1 and 6); settings: Escherichia coli, Table 1, read-out: MIC of Iron Chelators
Protocol: as §1, §2, §3

[5] = test system: multi-drug resistant bacterial species; assay: Time kill method, synergy with rifampin (summary)
Protocol: Reductions in colony forming units (CFU)/mL were determined over time (time-kill assay) after exposure to VK28 and deferiprone (DFP), the two iron chelators that performed best in MIC assays when compared to controls. To better represent the iron content found in the human body, MIC and time-kill assays were also determined in minimal media and tissue culture media. Time-Kill assays were performed as previously described in G. P. Neupane et al., “In vitro time-kill activities of ciprofloxacin alone and in combination with the iron chelator deferasirox against Vibrio vulnificus,” European Journal of Clinical Microbiology and Infectious Diseases, 407-410 (2010); and R. L. White, et al., “Comparison of Three Different In Vitro Methods of Detecting synergy: Time-Kill, Checkerboard, and E test,” Journal of Antimicrobial Agents and Chemotherapy, 1914-1918 (1996). Initial inocula, for example 1×10^6 CFU/mL or 1×10^7 CFU/mL were challenged with iron chelator with and/or without an antibiotic. Cells were allowed to grow in CAMHB at 37° C. for 24 hours. Time-kill results were analyzed by determining the change in log 10 numbers of CFU/ml at 0, 6, and 24 h, compared to counts at 0 h. Antimicrobials were considered bactericidal at the lowest concentration that reduced the size of the original inoculum by >3 log 10 CFU/ml (99.9%) over each of the time periods and were considered bacteriostatic if the inoculum's size was reduced by 0 to <3 log 10 CFU/ml.

Acinetobacter baumannii [6] = assay: MIC in RPMI1640 media (Table 2)
Protocol: (§4) […] […] Tests were performed in triplicate. MIC of iron chelators were determined for noscomial ESKAPE pathogens.
(§5) This media is closer to the iron levels in the human body. MICs are in ug/mL.

K. pneumonia [7] = assay: MIC in RPMI1640 media (Table 2); settings: Klebsiella pneumoniae
Protocol: as §4, §5

P. aeruginosa [8] = assay: MIC in RPMI1640 media (Table 2); settings: Pseudomonas aeruginosa
Protocol: as §4, §5

E. coli [9] = assay: MIC in RPMI1640 media (Table 2)
Protocol: as §4, §5

[10] = test system: clinical isolates of A. baumannii; assay: MIC for clinical isolates in RPMI (low iron) media (Table 4); design: key to MIC of Iron Chelators: NG = no growth in table 4; settings: for MIC: Acinetobacter baumannii
Protocol: as §4
For a number of strains, the iron chelators produced no growth of bacteria (NG).

Structure (SMILES): OCCN1CCN(Cc2ccc(O)c3ncccc23)CC1 [VK28, 5-(4-(2-hydroxyethyl)piperazin-1-ylmethyl)-8-hydroxyquinoline]
- MIC (S. aureus; ATCC25923, ATCC 25923): 250 µg/mL
- MIC (S. aureus; ATCC 43300 (MRSA)): 250 µg/mL
- MIC (Acinetobacter baumannii [1]; ATCC17978, ATCC 17978, Table 1, read-out: MIC of Iron Chelators): 125 µg/mL
- MIC (Acinetobacter baumannii [1]; ATCC19606, ATCC 19606, Table 1, read-out: MIC of Iron Chelators): 125 µg/mL
- MIC (K. pneumonia [2]; ATCC700603, ATCC 700603): > 500 µg/mL
- MIC (K. pneumonia [2]; BAA2146, BAA-2146): > 500 µg/mL
- MIC (P. aeruginosa [3]; ATCC27853, ATCC 27853): > 500 µg/mL
- MIC (P. aeruginosa [3]; PAO1): > 500 µg/mL
- MIC (E. coli [4]; ATCC35218, ATCC 35218): > 500 µg/mL
- MIC (E. coli [4]; ATCC43888, ATCC 43888 (0157:H7)): > 500 µg/mL
- synergy with rifampin, time kill method [5]: strong synergy
- MIC (Acinetobacter baumannii [6]; ATCC17978, ATCC 17978, read-out: MIC of Iron Chelators): 32 µg/mL
- MIC (Acinetobacter baumannii [6]; ATCC19606, ATCC 19606, read-out: MIC of Iron Chelators): 8 µg/mL
- MIC (K. pneumonia [7]; ATCC700603, ATCC 700603, read-out: MIC of Iron Chelators): 16 µg/mL
- MIC (K. pneumonia [7]; BAA2146, BAA-2146, read-out: MIC of Iron Chelators): 16 µg/mL
- MIC (P. aeruginosa [8]; ATCC27853, ATCC 27853, read-out: MIC of Iron Chelators): 16 µg/mL
- MIC (P. aeruginosa [8]; PAO1, read-out: MIC of Iron Chelators): 16 µg/mL
- MIC (E. coli [9]; Escherichia coli, 35718, read-out: MIC of Iron Chelators): 32 µg/mL
- MIC (E. coli [9]; Escherichia coli, ATCC43888, ATCC 43888 (0157:H7), read-out: MIC of Iron Chelators): 8 µg/mL
- MIC of Iron Chelators ([10]; AB967): NG
- MIC of Iron Chelators ([10]; AB2828): NG
- MIC of Iron Chelators ([10]; AB3340): NG
- MIC of Iron Chelators ([10]; AB3560): NG
- MIC of Iron Chelators ([10]; AB3927): NG
- MIC ([10]; AB3638, read-out: MIC of Iron Chelators): 8 µg/mL
- MIC ([10]; AB3785, read-out: MIC of Iron Chelators): 8 µg/mL
- MIC ([10]; AB3806, read-out: MIC of Iron Chelators): 8 µg/mL
- MIC ([10]; AB3917, read-out: MIC of Iron Chelators): 4 µg/mL
- MIC ([10]; AB4025, read-out: MIC of Iron Chelators): 8 µg/mL
- MIC ([10]; AB4026, read-out: MIC of Iron Chelators): 8 µg/mL
- MIC ([10]; AB4027, read-out: MIC of Iron Chelators): 8 µg/mL
- MIC ([10]; AB4052, read-out: MIC of Iron Chelators): 8 µg/mL
- MIC ([10]; AB4269, read-out: MIC of Iron Chelators): 8 µg/mL
- MIC ([10]; AB4448, read-out: MIC of Iron Chelators): 8 µg/mL
- MIC ([10]; AB4456, read-out: MIC of Iron Chelators): 8 µg/mL
- MIC ([10]; AB4490, read-out: MIC of Iron Chelators): 8 µg/mL
- MIC ([10]; AB4498, read-out: MIC of Iron Chelators): 8 µg/mL
- MIC ([10]; AB4795, read-out: MIC of Iron Chelators): 4 µg/mL
- MIC ([10]; AB4857, read-out: MIC of Iron Chelators): 8 µg/mL
- MIC ([10]; AB4878, read-out: MIC of Iron Chelators): 8 µg/mL
- MIC ([10]; AB4932, read-out: MIC of Iron Chelators): 8 µg/mL
- MIC ([10]; AB4957, read-out: MIC of Iron Chelators): 8 µg/mL
- MIC ([10]; AB4991, read-out: MIC of Iron Chelators): 8 µg/mL
- MIC ([10]; AB5001, read-out: MIC of Iron Chelators): 8 µg/mL
- MIC ([10]; AB5075, read-out: MIC of Iron Chelators): 8 µg/mL
- MIC ([10]; AB5197, read-out: MIC of Iron Chelators): 4 µg/mL
- MIC ([10]; AB5256, read-out: MIC of Iron Chelators): 8 µg/mL
- MIC ([10]; AB5674, read-out: MIC of Iron Chelators): 8 µg/mL
- MIC ([10]; AB5711, read-out: MIC of Iron Chelators): 8 µg/mL
